Reference: US7074459B2, “Method for preserving wood” (priority 2003, dated 2006)

Experiments:
Format in all cases: cell-based
[1] = test system: Staphylococcus aureous (gram positive); test: Bacteriostatic activity in Oxoid No. 2 nutrient broth; conditions: 0.1 wt. %, 48 hours incubation
Procedure: (§1) The bacteriostatic activity of several complexes was investigated by testing at 0.1 wt. % using Oxoid No. 2 nutrient broth and inoculating the broth with 1 ml of a 24 hour broth culture of the test organisms. After incubation at the optimum growth temperature of the organism for 48 hours.
(§2) The organisms tested were:
Staphylococcus aureous (gram positive)

[2] = test system: Pseudomonas aeruginosa (gram negative); test: as above; conditions: 0.1 wt. %, 48 hours incubation
Procedure: as §1, §2
Pseudomonas aeruginosa (gram negative)

[3] = test system: Escherichia coli (gram negative); test: as above; conditions: 0.1 wt. %, 48 hours incubation
Procedure: as §1, §2
Escherichia coli (gram negative)

[4] = test system: brown-rot fungus Gloeophyllum trabeum; test: ASTM 1413 standard soil block test, 12 weeks; conditions: 1% treatment, unleached, 12-week soil block test with G. trabeum
Procedure: The following five wood preservatives were prepared for testing according to ASTM Stanard D 1413. • 1. chlorhexidine (CH)—Omadine^a 1:2 complex • 2. Polyhexamethylene biguanide—Omadine 1:1 complex • 3. Bardac^b 2250—Omadine 1:1 complex • 4. Tetrakis(hydroxylmethyl)phosphonium 0 Omadine 1:1 complex • 5. B-55^c polyionene—Omadine 1:2 complex • a) Omadine is 2-mercapto pyridine N-oxide • b) Barclac 2250 is […] • c) […] is poly(oxyethylene(dimethyliminio)ethylene(dimethylimino)ethylene dichloride Biological Evaluation
The ASTM 1413 standard soil block test was performed (ASTM 1999) Five soil bottles of each treatment and solution concentration (plus untreated controls) were exposed to the brown-rot fungus Gloeophyllum trabeum for 12 weeks. Two soil bottles with no fungus were also run to monitor any leaching of chemicals. Specimens were removed from test after 12 weeks exposure and conditioned until constant weight in the conditioning room (27° C./30°RH). The extent of decay was determined by weight loss.

Molecule | bacteriostatic activity [1] | bacteriostatic activity [2] | bacteriostatic activity [3] | Wt. Loss % (Fungus) [4] [%]
OC[P+](CO)(CO)CO.[O-][n+]1ccccc1[S-] [Compound 8] | bacteriostatic | bacteriostatic | bacteriostatic | −0.07
N=C(NCCCCCCNC(=N)NC(=N)Nc1ccc(Cl)cc1)NC(=N)Nc1ccc(Cl)cc1.Oc1cc(Cl)ccc1Oc1ccc(Cl)cc1Cl.Oc1cc(Cl)ccc1Oc1ccc(Cl)cc1Cl [Compound 10, chlorhexidinium di (triclosante)] | bacteriostatic | bacteriostatic | bacteriostatic | –
N=C(NCCCCCCNC(=N)NC(=N)Nc1ccc(Cl)cc1)NC(=N)Nc1ccc(Cl)cc1.On1ccccc1=S.On1ccccc1=S [Compound 6, chlorhexidinium di(2-mercapto-pyridine N-oxides)] | bacteriostatic | bacteriostatic | bacteriostatic | 1.57
didecyldimethyl ammonium 2-mercapto-benzothiazole [Compound 5] | bacteriostatic | bacteriostatic | bacteriostatic | –
